Reference: patent US20260356841A1, “HETEROCYCLIC PYRIDINONE COMPOUNDS AS TRIGGERING RECEPTOR EXPRESSED ON MYELOID CELLS 2 AGONISTS AND METHODS OF USE” (Vigil Neuroscience, Inc., priority 2023, published 2026)

biological target: T1, human TREM2 (Homo sapiens, UniProt Q9NZC2); assay: TREM2 agonist potency by cellular phosphorylation of Spleen Tyrosine Kinase (Syk), AlphaLisa, HEK293T-hTREM2 cells; type: cell-based; settings: hTREM2 EC50 Data (HEK293 Cells); Syk phosphorylation, AlphaLisa; read-out: hTREM2 EC50
T1 construct: expressed in transfected cells; host or cells: HEK293T (HEK293T-hTREM2 cells)
Method: Measurement of TREM2 agonist potency was done using a HEK cell line expressing human TREM2 and DAP12 (HEK293T-hTREM2 cells). Binding of small molecules to, and activation of, TREM2 increases the phosphorylation of Syk. The resultant levels of Syk phosphorylation are measured using a commercial AlphaLisa reagent kit. To perform the assay, HEK-hTREM2 cells were plated at 14,000 cells per well in a 384 well plate, in 25 μL of complete growth media and incubated at 37° C., 5% CO2 for 20-24 hours.
Prior to the assay, test compounds were diluted in the 384 well plates in assay buffer and allowed to equilibrate for 30 minutes. Growth media was removed from cell plates by inversion on blotting paper, and 25 μL of test articles in assay buffer was added to cells. Cells were incubated for 45 minutes at room temperature. After 45 minutes, assay buffer was removed and 10 μL of lysis buffer was added. Plates were shaken for 20 minutes at 350 RPM at room temperature. After complete lysis, AlphaLisa reagents were added to the lysate, and fluorescence intensity was measured using a Perkin Elmer Envision plate reader. Intensities were used to generate a standard curve, and % activation was calculated. Curve fitting was performed using Prism v9 software, log (agonist) vs response-variable slope (four parameters), and EC50s were calculated from the curve fit.
The results presented in Table B have been generated with the in vitro assay described above. This assay may be used to test any of the compounds described herein to assess and characterize a compound's ability to act as an agonist of TREM2.

T1 sequence (Q9NZC2 19-230): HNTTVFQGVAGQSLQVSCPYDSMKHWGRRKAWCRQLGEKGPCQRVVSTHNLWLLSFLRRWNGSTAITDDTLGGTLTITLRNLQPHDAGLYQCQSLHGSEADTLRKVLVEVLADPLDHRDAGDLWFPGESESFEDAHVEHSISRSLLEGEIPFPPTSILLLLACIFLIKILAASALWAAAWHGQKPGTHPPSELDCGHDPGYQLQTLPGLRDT
T1 sequence (O43914 22-113 partner): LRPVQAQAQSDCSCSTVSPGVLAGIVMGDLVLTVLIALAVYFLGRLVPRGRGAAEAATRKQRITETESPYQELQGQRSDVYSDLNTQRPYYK

Row | Compound | EC50 [µM]
1 | Cc1nc2nc([C@@H]3CCO[C@H](c4ccc(=O)n(C)c4)C3)nc(C3CCC(F)(F)CC3)c2nc1C [Example 29, 5-((2S,4R)-4-(4-(4,4-difluorocyclohexyl)-6,7-dimethylpteridin-2-yl)tetrahydro-2H-pyran-2-yl)-1-methylpyridin-2 (1H)-one] | 0.1 to 0.5
2 | Cc1nc2nc([C@@H]3CCO[C@@H](c4ccc(=O)n(C)c4)C3)cc(C34CC(C(F)(F)F)(C3)C4)c2nc1C [Example 169, 1-methyl-5-[(2R,4R)-4-[2,3-dimethyl-8-[3-(trifluoromethyl)-1-bicyclo-[1.1.1]pentanyl]pyrido[2,3-b]pyrazin-6-yl]tetrahydropyran-2-yl]pyridin-2-one] | < 0.1
3 | Cc1nc2nc([C@H]3CCO[C@@H](c4ccc(=O)n(C5CCC5)c4)C3)nc(C34CC(C(F)(F)F)(C3)C4)c2nc1C [Example 94, 1-cyclobutyl-5-[(2R,4S)-4-[6,7-dimethyl-4-[3-(trifluoromethyl)-1 bicyclo[1.1.1]pentanyl]pteridin-2-yl]tetrahydropyran-2-yl]pyridin-2-one] | < 0.1
4 | Cc1nc2nc([C@H]3CCO[C@@H](c4ccc(=O)n(C)c4)C3)nc(C34CC(CC(F)F)(C3)C4)c2nc1C [Example 46, 5-[(2R,4S)-4-[4-[3-(2,2-difluoroethyl)-1-bicyclo[1.1.1]pentanyl]-6,7-dimethyl-pteridin-2-yl]tetrahydropyran-2-yl]-1-methyl-pyridin-2-one] | < 0.1
5 | Cc1cnc2c(C34CC(C(F)(F)F)(C3)C4)nc([C@@H]3CCO[C@H](c4ccc(=O)n(C)c4)C3)nc2n1 [Example 124, 1-methyl-5-((2S,4R)-4-(7-methyl-4-(3-(trifluoromethyl)bicyclo[1.1.1]pentan-1-yl)pteridin-2-yl)tetrahydro-2H-pyran-2-yl)pyridin-2(1H)-one] | 0.1 to 0.5
6 | Cc1nc2nc([C@@H]3CCO[C@H](c4ccc(=O)n(C)c4)C3)nc(-c3ccc(C(F)(F)F)c(F)c3F)c2nc1C [Example 19] | < 0.1
7 | Cc1nc2nc([C@@H]3CCO[C@H](c4ccc(=O)n(C)c4)C3)nc(C34CC(C(F)(F)F)(C3)C4)c2nc1C1CC1 [Example 159, 1-methyl-5-[(2S,4R)-4-[6-cyclopropyl-7-methyl-4-[3-(trifluoro-methyl)-1-bicyclo[1.1.1]pentanyl]pteridin-2-yl]tetrahydropyran-2-yl]pyridin-2-one] | < 0.1
8 | CNn1cc([C@H]2C[C@@H](c3nc(C45CC(C(F)(F)F)(C4)C5)c4cc(C(F)(F)F)c(C)nc4n3)CCO2)ccc1=O [Example 338, 1-(methylamino)-5-((2R,4S)-4-(7-methyl-6-(trifluoromethyl)-4-(3-(trifluoromethyl)bicyclo-[1.1.1]pentan-1-yl)pyrido[2,3-d]pyrimidin-2-yl)tetrahydro-2H-pyran-2-yl)pyridin-2 (1H)-one] | < 0.1
9 | COc1nc2c(C3CCCCC3)nc([C@H]3CCO[C@@H](c4ccc(=O)n(C)c4)C3)nc2nc1C [Example 136, 5-[(2R)-4-(4-cyclohexyl-6-methoxy-7-methyl-pteridin-2-yl)tetrahydropyran-2-yl]-1-methyl-pyridin-2-one] | < 0.1
10 | Cc1nc2nc([C@@H]3CCO[C@H](c4cnc(=O)n(C)c4)C3)nc(C34CC(C(F)(F)F)(C3)C4)c2nc1C [Example 162, 1-methyl-5-[(2S,4R)-4-[6,7-dimethyl-4-[3-(trifluoromethyl)-1-bicyclo[1.1.1]-pentanyl]pteridin-2-yl]tetrahydropyran-2-yl]pyrimidin-2-one] | < 0.1
11 | Cc1nc2nc([C@H]3CCO[C@@H](c4ccc(=O)n(CC5(C#N)CC5)c4)C3)nc(C34CC(C(F)(F)F)(C3)C4)c2nc1C [Example 98, 1-[[5-[(2R,4S)-4-[6,7-dimethyl-4-[3-(trifluoromethyl)-1-bicyclo[1.1.1]pentanyl]pteridin-2-yl]tetrahydropyran-2-yl]-2-oxo-1-pyridyl]methyl]cyclopropanecarbonitrile] | < 0.1
12 | Cc1cc2c(-c3ccc(F)cc3F)nc(N3C[C@@H](C)O[C@@H](c4ccc(=O)[nH]c4)C3)cc2nc1C [Example 192, 5-((2S,6R)-4-(5-(2,4-difluorophenyl)-2,3-dimethyl-1,6-naphthyridin-7-yl)-6-methylmorpholin-2-yl)pyridin-2(1H)-one] | 0.1 to 0.5
13 | Cc1nc2nc([C@@H]3CCO[C@@H](c4ccc(=O)n(C5CC5)c4)C3)nc(-c3ccc(C(F)(F)F)cc3F)c2nc1C [Example 66, 1-cyclopropyl-5-[(2R,4R)-4-[4-[2-fluoro-4-(trifluoromethyl)phenyl]-6,7-dimethyl-pteridin-2-yl]tetrahydropyran-2-yl]pyridin-2-one] | < 0.1
14 | Cc1nc2nc([C@H]3CCO[C@@H](c4ccc(=O)n(N(C)C)c4)C3)nc(C34CC(C(F)(F)F)(C3)C4)c2cc1C(F)(F)F [Example 336, 1-(dimethylamino)-5-((2R,4S)-4-(7-methyl-6-(trifluoromethyl)-4-(3-(trifluoromethyl)bicyclo-[1.1.1]pentan-1-yl)pyrido[2,3-d]pyrimidin-2-yl)tetrahydro-2H-pyran-2-yl)pyridin-2 (1H)-one] | < 0.1
15 | [2H]C([2H])([2H])n1cc([C@H]2C[C@@H](c3nc(C45CC(C(F)(F)F)(C4)C5)c4nc(C)c(C)nc4n3)CCO2)ccc1=O [Example 36] | < 0.1
16 | Cc1nc2nc(N3C[C@@H](C)O[C@@H](c4ccc(=O)n(N)c4)C3)nc(C34CC(C(F)(F)F)(C3)C4)c2nc1C1COC1 [Example 185, 1-amino-5-[(2S,6R)-6-methyl-4-[7-methyl-6-(oxetan-3-yl)-4-[3-(trifluoromethyl)-1-bicyclo[1.1.1]pentanyl]pteridin-2-yl]morpholin-2-yl]pyridin-2-one] | 0.1 to 0.5
17 | [2H]C([2H])([2H])n1cc([C@H]2C[C@@H](c3nc(C4CC45CC5(F)F)c4nc(C)c(C)nc4n3)CCO2)ccc1=O (stereo partly drawn) [Example 92, 5-((2R,4S)-4-(4-(4,4-difluorospiro[2.2]pentan-1-yl)-6,7-dimethylpteridin-2-yl)tetrahydro-2H-pyran-2-yl)-1-(methyl-d3)pyridin-2(1H)-one] | > 0.5
18 | Cc1nc2nc([C@@H]3CCO[C@H](c4ccc(=O)n(C)c4)C3)nc(-c3ccc(C(F)(F)F)cc3F)c2nc1C [Example 5, 1-methyl-5-[(2S,4R)-4-[4-[2-fluoro-4-(trifluoromethyl)phenyl]-6,7-dimethyl-pteridin-2-yl]tetrahydropyran-2-yl]pyridin-2-one] | < 0.1
19 | Cc1nc2nc(C3CCO[C@@H](c4ccc(=O)n(N(C)C)c4)C3)nc(C34CC(C(F)(F)F)(C3)C4)c2nc1C(F)F (stereo in doubt) [Example 220, 5-((2R,4R)-4-(6-(difluoromethyl)-7-methyl-4-(3-(trifluoromethyl)bicyclo[1.1.1]pentan-1-yl)pteridin-2-yl)tetrahydro-2H-pyran-2-yl)-1-(dimethylamino)pyridin-2(1H)-one] | < 0.1
20 | COc1nc2c(-c3ccc(C(F)(F)F)cc3F)nc([C@@H]3CCO[C@H](c4ccc(=O)n(C)c4)C3)nc2nc1C [Example 130, 1-methyl-5-[(2S,4R)-4-[4-[2-fluoro-4-(trifluoromethyl)phenyl]-6-methoxy-7-methyl-pteridin-2-yl]tetrahydropyran-2-yl]pyridin-2-one] | < 0.1
